Results reported in patent US6376666B1 (Nauchno-Issledovatelsky Institut Farmakologii Rossiiskoi …, priority 1994, dated 2002).
Marks after values point to notes of the source that are not given here.

Columns and labels:
Format in all cases: in vivo
[1] = tested on: Balb/c mice; test: open-field test, Balb/c mice (passive type of emotional-stress reaction); settings: i.p., screening
Description: The main point of this approach consists in comparative analysis of the behavioural effects of tested compounds in two inbred strains of mice Balb/c and C57B1/6 with different hereditary types of emotional-stress reactions (ESR). The anxiolytic effect was estimated as the activation of the locomotor activity of animals with “passive” type of ESR (Balb/c mice). The main index describing the sedative properties of tested drugs was the inhibition of the locomotor activity of mice with “active” type of ESR (C57B1/6 strain). The anxioselectivity was evaluated according to coincidence of doses range which activated or inhibited the behavior of mice of different strains. Earlier this approach has been successfully used for estimation of anxioselective activity of such known drugs as phenazepam [Seredenin S. B. et al., Bull.Exp.Biol.Med., 1979, v.88, N7, p.38; Seredenin S. B. et al., Ann.Inst.Super.Sanita, 1990, v.26, N1, p.81-88], mexidol [Seredenin S. B. et al., Khimiko-Farmatsevt.Zhurnal, 1987, N2, p.134; Vironina T. A., Seredenin S. B., Ann.Inst.Super.Sanita, 1988, v.24, N3, p.461-466] and gidazepam [Seredenin S. B. et al., in: “Gidazepam” Kiev, Naukova Dumka, 1992, p.92; Seredenin S. B., Blednov Yu. A., Phys.Chem.Biol.Med., 1993, v.1, N1, p.53-60].
Male C57B1/6 and Balb/c mice (“Stolbovaya” animal farm), weighing 20-22 g were used. The animals were housed in a separate animal room in groups of ten and maintained on 12 h light-dark cycle (light from 8.00 till 20.00) with free access to standard food and water during two weeks before experiment. Testing was performed between 9.00 and 13.00. Every used compound was administered intraperitoneally in water solutions 30 min before testing (0,1 ml solution per 10 g of weight). The “open-field” apparatus consisted of cylinder closed from one end, illuminated by four 75 W lamps fixed to the walls 100 cm above the floor. The “open-field” apparatus was 100 cm in diameter and white-painted; the floor was marked with 3 black circles and some radial lines divided the floor into 16 peripheral and 8 central segments. 30 min after injection each animal was placed in the same peripheral square on the floor for 3 min of testing after 1 min exposure in the dark chamber. The following behavior variables were recorded: 1) the number of crossings in the peripheral area (peripheral activity); 2) the number of crossings in the central segments (central activity); 3) the number of rearings (vertical activity); 4) the emotionality was measured as the number of defecations during the test. The sum of all types of locomotor activity was marked as total activity. The t-Student test was used for statistical analysis.

[2] = tested on: cats; test: hemodynamics and activity of intact heart in cats under anesthesia; settings: for Cardiac volume, change from basal level / Heart rate, change from basal level / Mean blood flow accelaration (aortic), change from basal level / Mean blood pressure, change from basal level / Stroke volume, change from basal level: cats, 1.0 mg/kg i.v.
Protocol: The effects of compounds on the hemodynamics and activity of intact heart were studied in cats under anesthesia. The experiments were carried out under conditions of open chest. The phase curve of aortic blood flow was the main index of cardiac activity. The compounds were administered i.v. in physiological solution. The t-Student' test was used to estimate the statistical significance.

[3] = tested on: ischemized myocardium of cats; test: ST-segment elevation during 5 min occlusions of coronary artery (acute coronary deficiency); settings: for change in mean elevation of ST-segment vs control occlusion: cats, 1.0 mg/kg i.v.
Protocol: These experiments were conducted in cats weighing 2,5-4,0 kg under anasthesia by i.v. injection of nembutal (40 mg/kg) in open chest conditions. Epicardium electrogram in 3-4 leads was registered in “Mingograph-81”. The value of mean elevation of ST-segment during 5 min occlusions of anterior left descending coronary artery with 15 min reperfusions between them was the main index of intensity of reversible ischemized damage of myocardium.
The statistical calculation was carried out with non-parametric Wilcocson method for associated variants.

Compound: CCOc1ccc2nc(SCCN(C)C)[nH]c2c1 [VIII]
- effect on the behavior (locomotor activity) of Balb/c mice in open-field test, in words [1]: neither activatory nor inhibitory effects
- effect on contractile function of heart, in words ([2]; cats i.v., same doses as bradycardia): slightly enhanced the contractility of myocardium
- duration of bradycardia after administration ([2]; cats i.v., VIII 1,0, IX 0,5 and 1,0, XX 1,0 and 2,0 mg/kg): 30 min
- effect on heart rate, in words ([2]; cats i.v., VIII 1,0, IX 0,5 and 1,0, XX 1,0 and 2,0 mg/kg, XXIII 1.0, verapamil 0.5 mg/kg): expressed bradycardia
- Cardiac volume, change from basal level ([2]; after 2 min): +7.0 ± 2.9%
- Heart rate, change from basal level ([2]; after 2 min): −10.9 ± 2.3 %
- Mean blood flow accelaration (aortic), change from basal level ([2]; after 2 min): +3.3 ± 2.7%
- Mean blood pressure, change from basal level ([2]; after 2 min): −1.8 ± 3.8%
- Stroke volume, change from basal level ([2]; after 2 min): +20.6 ± 6.5 %
- Cardiac volume, change from basal level ([2]; after 5 min): +6.0 ± 12.8%
- Heart rate, change from basal level ([2]; after 5 min): −3.2 ± 1.4%
- Mean blood flow accelaration (aortic), change from basal level ([2]; after 5 min): −2.0 ± 9.0%
- Mean blood pressure, change from basal level ([2]; after 5 min): −2.8 ± 5.7%
- Stroke volume, change from basal level ([2]; after 5 min): +5.6 ± 10.8%
- Cardiac volume, change from basal level ([2]; after 10 min): −7.5 ± 9.6%
- Heart rate, change from basal level ([2]; after 10 min): −4.4 ± 1.9%
- Mean blood flow accelaration (aortic), change from basal level ([2]; after 10 min): −5.2 ± 7.8%
- Mean blood pressure, change from basal level ([2]; after 10 min): −7.8 ± 5.7%
- Stroke volume, change from basal level ([2]; after 10 min): −3.5 ± 8.7%
- Cardiac volume, change from basal level ([2]; after 20 min): −7.2 ± 9.2%
- Heart rate, change from basal level ([2]; after 20 min): −3.2 ± 1.8%
- Mean blood flow accelaration (aortic), change from basal level ([2]; after 20 min): −6.2 ± 7.6%
- Mean blood pressure, change from basal level ([2]; after 20 min): −12.0 ± 5.0%
- Stroke volume, change from basal level ([2]; after 20 min): −4.5 ± 8.4%
- Cardiac volume, change from basal level ([2]; after 30 min): −2.2 ± 3.0%
- Heart rate, change from basal level ([2]; after 30 min): −5.4 ± 3.1%
- Mean blood flow accelaration (aortic), change from basal level ([2]; after 30 min): +1.2 ± 2.1%
- Mean blood pressure, change from basal level ([2]; after 30 min): −6.5 ± 5.7%
- Stroke volume, change from basal level ([2]; after 30 min): +3.5 ± 3.5%
- Cardiac volume, change from basal level ([2]; after injection): 38.1 ± 11.6 %
- Heart rate, change from basal level ([2]; after injection): −15.3 ± 1.1 %
- Mean blood flow accelaration (aortic), change from basal level ([2]; after injection): +31.3 ± 10.8%
- Mean blood pressure, change from basal level ([2]; after injection): −14.8 ± 12.5%
- Stroke volume, change from basal level ([2]; after injection): 63.2 ± 14.0 %
- change in mean elevation of ST-segment vs control occlusion ([3]; occlusion 20 min after injection, 30 sec of occlusion): −0.45 mv
- change in mean elevation of ST-segment vs control occlusion ([3]; occlusion 20 min after injection, 1 min of occlusion): −0.30 mv
- change in mean elevation of ST-segment vs control occlusion ([3]; occlusion 20 min after injection, 2 min of occlusion): −0.50 mv
- change in mean elevation of ST-segment vs control occlusion ([3]; occlusion 20 min after injection, 4 min of occlusion): −0.50 mv
- change in mean elevation of ST-segment vs control occlusion ([3]; occlusion 20 min after injection, 5 min of occlusion): −0.25 mv
- change in mean elevation of ST-segment vs control occlusion ([3]; occlusion 40 min after injection, 15 sec of reperfusion): −0.75 mv
- change in mean elevation of ST-segment vs control occlusion ([3]; occlusion 40 min after injection, 30 sec of occlusion): −0.55 mv
- change in mean elevation of ST-segment vs control occlusion ([3]; occlusion 40 min after injection, 1 min of occlusion): −0.35 mv
- change in mean elevation of ST-segment vs control occlusion ([3]; occlusion 40 min after injection, 2 min of occlusion): −0.40 mv
- change in mean elevation of ST-segment vs control occlusion ([3]; occlusion 40 min after injection, 4 min of occlusion): −0.50 mv
- change in mean elevation of ST-segment vs control occlusion ([3]; occlusion 40 min after injection, 5 min of occlusion): −0.85 mv
- change in mean elevation of ST-segment vs control occlusion ([3]; occlusion immediately after injection, 15 sec of reperfusion): −0.40 mv
- change in mean elevation of ST-segment vs control occlusion ([3]; occlusion immediately after injection, 30 sec of occlusion): −1.20* mv
- change in mean elevation of ST-segment vs control occlusion ([3]; occlusion immediately after injection, 1 min of occlusion): −0.90* mv
- change in mean elevation of ST-segment vs control occlusion ([3]; occlusion immediately after injection, 2 min of occlusion): −1.25* mv
- change in mean elevation of ST-segment vs control occlusion ([3]; occlusion immediately after injection, 4 min of occlusion): −0.70 mv
- change in mean elevation of ST-segment vs control occlusion ([3]; occlusion immediately after injection, 5 min of occlusion): −0.80 mv
- effect on mean elevation of ST-segment during 5 min occlusion, in words ([3]; cats, 1,0 mg/kg i.v.): decreased the mean elevation of ST-segment
